Experimental data taken from patent US20080194546A1, “Pyrido-, Pyrazo- and Pyrimido-Pyrimidine Derivatives as mTOR Inhibitors” (KuDOS Pharmaceuticals Limited, priority 2005, published 2008).
Where two headings read alike, the source gives them in different places.

Columns and labels:
mTOR = target: T1, mTOR (Homo sapiens, UniProt P42345); assay: Biological Assay: mTOR enzyme activity, mTOR immunoprecipitated from HeLa cell cytoplasmic extract, recombinant PHAS-1 as substrate; type: biochemical
T1 construct: mTOR protein was isolated from HeLa cell cytoplasmic extract by immunoprecipitation; endogenous in cells; host or cells: HeLa cell cytoplasmic extract (immunoprecipitate)
Text: For mTOR enzyme activity assays, mTOR protein was isolated from HeLa cell cytoplasmic extract by immunoprecipitation, and activity determined essentially as described previously using recombinant PHAS-1 as a substrate (ref. 21).

[1] = target: recombinant mTOR (FLAG-tagged, amino acid residues 1362 to 2549) (Homo sapiens, UniProt P42345); assay: Alternative Enzyme Assay: AlphaScreen, inhibition of phosphorylation by recombinant mTOR; type: biochemical
[2] = test system: phosphorylation of Serine 473 in Akt in MDA-MB-468 cells; assay: In Vitro phospho-Ser473 Akt Assay (Acumen Explorer); type: cell-based; settings: Homo sapiens, MDA-MB-468 cells
[3] = AlphaScreen, ATP 20 μM, read-out: IC50, tested in Alternative Enzyme Assay
[4] = Alternative Enzyme Assay, upper bounds, read-out: IC50 values against mTOR
[5] = Alternative Enzyme Assay, read-out: IC50 values against mTOR
[6] = 2 hours, read-out: IC50, phospho-Ser473 Akt assay (cellular IC50, measured by pAkt)
[7] = compounds of Formula I(B), read-out: IC50 values against mTOR (phospho-Ser473 Akt assay)
[8] = mTOR from HeLa extract, PHAS-1 substrate, read-out: IC50, tested in the Biological Assay

SMILES	IC50 [1, 4] [µM]	IC50 [1, 5] [µM]	IC50 [2, 6] [µM]	other results
C[C@@H]1CN(c2nc(N3CCOCC3)c3ccc(-c4ccc(Cl)cc4)nc3n2)C[C@H](C)O1 [Example 1b]				IC50 (mTOR; Biological Assay, upper bounds, read-out: IC50 values against mTOR): < 0.1 µM; IC50 [1, 3]: 0.057 µM
CC(C)Oc1ccc(-c2ccc3c(N4CCOCC4)nc(N4C[C@@H](C)O[C@@H](C)C4)nc3n2)cc1 [Example 1bd]	< 10	< 0.3	< 25	
C[C@H]1COCCN1c1nc(N2CCOCC2)c2ccc(-c3ccc(Cl)cc3)nc2n1 [Example 1be]	< 10	< 0.3	< 2.5	
C[C@@H]1CN(c2nc(N3CCOCC3)c3ccc(-c4cccc(/C=N/O)c4)nc3n2)C[C@H](C)O1 [Example 1bg]		< 0.3	< 2.5	
C/C(=N/O)c1cccc(-c2ccc3c(N4CCOCC4)nc(N4C[C@@H](C)O[C@@H](C)C4)nc3n2)c1 [Example 1bh]		< 0.3	< 25	
C[C@@H]1CN(c2nc(N3CCOCC3)c3ccc(-c4ccoc4CO)nc3n2)C[C@H](C)O1 [Example 1bi]		< 0.3	< 25	
COc1ccc(-c2ccc3c(N4CCOCC4)ncnc3n2)cc1CO [Example 1bj]		< 0.3	< 25	
CCCOc1ccc(-c2ccc3c(N4CCOCC4)nc(N4C[C@@H](C)O[C@@H](C)C4)nc3n2)cc1 [Example 1bn]	< 1			
C[C@@H]1CN(c2nc(N3CCOCC3)c3ccc(-c4ccc(OCC(C)(C)C)cc4)nc3n2)C[C@H](C)O1 [Example 1bo]	< 1			
C[C@@H]1CN(c2nc(N3CCOCC3)c3ccc(-c4ccc(OCC(C)(C)CO)cc4)nc3n2)C[C@H](C)O1 [Example 1bp]	< 1			
C/C=C/COc1ccc(-c2ccc3c(N4CCOCC4)nc(N4C[C@@H](C)O[C@@H](C)C4)nc3n2)cc1 [Example 1bq]	< 1			
CCOc1ccc(-c2ccc3c(N4CCOCC4)nc(N4C[C@@H](C)O[C@@H](C)C4)nc3n2)cc1 [Example 1br]	< 1		< 2.5	
C[C@@H]1CN(c2nc(N3CCOCC3)c3ccc(-c4ccc(OCC5CCCO5)cc4)nc3n2)C[C@H](C)O1 (some centres unmarked) [Example 1bt]	< 1			
CC(Oc1ccc(-c2ccc3c(N4CCOCC4)nc(N4C[C@@H](C)O[C@@H](C)C4)nc3n2)cc1)c1ccccc1 (some centres unmarked) [Example 1bv]	< 10			
C[C@@H]1CN(c2nc(N3CCOCC3)c3ccc(-c4ccc(OCc5ccc(F)c(F)c5)cc4)nc3n2)C[C@H](C)O1 [Example 1bw]	< 10			
CC(C)CCCOc1ccc(-c2ccc3c(N4CCOCC4)nc(N4C[C@@H](C)O[C@@H](C)C4)nc3n2)cc1 [Example 1bx]	< 10			
COc1ccc(-c2ccc3c(N4CCOCC4)nc(-c4cc(N)cc(C(=O)O)c4)nc3n2)cc1CO [Example 9a]	< 10	< 0.3	< 25	
Clc1ccc(-c2ccc3c(N4CCOCC4)nc(-c4cccc(-c5ccccc5)c4)nc3n2)cc1 [Example 9aa]	< 1		< 25	
N#Cc1cccc(-c2nc(N3CCOCC3)c3ccc(-c4ccc(Cl)cc4)nc3n2)c1 [Example 9ab]	< 10			
NC(=O)c1cccc(-c2nc(N3CCOCC3)c3ccc(-c4ccc(Cl)cc4)nc3n2)c1 [Example 9ac]	< 10			
COC(=O)c1cccc(-c2nc(N3CCOCC3)c3ccc(-c4ccc(Cl)cc4)nc3n2)c1 [Example 9ad]	< 1			
COc1ccc(-c2ccc3c(N4CCOCC4)nc(-c4cccc(CO)c4)nc3n2)cc1CO [Example 9ae]	< 10	< 0.3		
COc1ccc(-c2ccc3c(N4CCOCC4)nc(-c4cc(C(=O)O)cc([N+](=O)[O-])c4)nc3n2)cc1CO [Example 9b]	< 10	< 0.3		
COc1ccc(-c2ccc3c(N4CCOCC4)nc(-c4cccc([N+](=O)[O-])c4)nc3n2)cc1CO [Example 9c]	< 10	< 0.3		
COc1ccc(-c2ccc3c(N4CCOCC4)nc(-c4cccc(C)c4)nc3n2)cc1CO [Example 9d]	< 10	< 0.3	< 25	
COc1cccc(-c2nc(N3CCOCC3)c3ccc(-c4ccc(OC)c(CO)c4)nc3n2)c1 [Example 9e]	< 10	< 0.3	< 25	

SMILES	IC50 [1, 4] [µM]	IC50 [1, 5] [µM]	IC50 [2, 6] [µM]	other results
COc1ccc(-c2ccc3c(N4CCOCC4)nc(-c4ccco4)nc3n2)cc1CO [Example 9f]	< 10	< 0.3	< 25	
COc1ccc(-c2ccc3c(N4CCOCC4)nc(-c4cccc(C=O)c4)nc3n2)cc1CO [Example 9g]	< 10	< 0.3	< 2.5	
COCc1cccc(-c2nc(N3CCOCC3)c3ccc(-c4ccc(OC)c(CO)c4)nc3n2)c1 [Example 9h]		< 0.3	< 2.5	
COc1ccc(-c2ccc3c(N4CCOCC4)nc(-c4cccc(O)c4)nc3n2)cc1CO [Example 9i]	< 10	< 0.3	< 2.5	
COc1ccc(-c2ccc3c(N4CCOCC4)nc(-c4cccc(C#N)c4)nc3n2)cc1CO [Example 9j]	< 10	< 0.3	< 25	
COc1ccc(-c2ccc3c(N4CCOCC4)nc(-c4cccc(C(N)=O)c4)nc3n2)cc1CO [Example 9k]		< 0.3	< 2.5	
COc1ccc(-c2ccc3c(N4CCOCC4)nc(-c4cccc(N)c4)nc3n2)cc1CO [Example 9l]		< 0.3	< 2.5	
OCc1cccc(-c2nc(N3CCOCC3)c3ccc(-c4ccc(Cl)cc4)nc3n2)c1 [Example 9m]	< 1		< 2.5	
COc1ccc(-c2ccc3c(N4CCOCC4)nc(-c4cccc(CN)c4)nc3n2)cc1CO [Example 9n]	< 1		< 2.5	
COc1ccc(-c2ccc3c(N4CCOCC4)nc(-c4cccc(-c5ccccc5)c4)nc3n2)cc1CO [Example 9o]	< 10			
FC(F)(F)c1cccc(-c2nc(N3CCOCC3)c3ccc(-c4ccc(Cl)cc4)nc3n2)c1 [Example 9p]	< 1			
COc1ccc(-c2ccc3c(N4CCOCC4)nc(-c4ccc(OC)c(CO)c4)nc3n2)cc1CO [Example 9q]	< 10			
COc1ccc(-c2ccc3c(N4CCOCC4)nc(-c4cccc(C(F)(F)F)c4)nc3n2)cc1CO [Example 9r]	< 1		< 25	
C[C@@H]1CN(c2ccc3c(N4CCOCC4)nc(-c4ccc(Cl)cc4)nc3n2)C[C@H](C)O1 [Example 9s]	< 10			
Clc1ccc(-c2ccc3c(N4CCOCC4)nc(-c4cccnc4)nc3n2)cc1 [Example 9t]	< 10			
COc1cccc(-c2nc(N3CCOCC3)c3ccc(-c4ccc(Cl)cc4)nc3n2)c1 [Example 9u]	< 10			
O=[N+]([O-])c1cccc(-c2nc(N3CCOCC3)c3ccc(-c4ccc(Cl)cc4)nc3n2)c1 [Example 9v]	< 10			
O=Cc1cccc(-c2nc(N3CCOCC3)c3ccc(-c4ccc(Cl)cc4)nc3n2)c1 [Example 9w]	< 10			
Clc1ccc(-c2ccc3c(N4CCOCC4)nc(-c4ccco4)nc3n2)cc1 [Example 9x]	< 10			
Cc1cccc(-c2nc(N3CCOCC3)c3ccc(-c4ccc(Cl)cc4)nc3n2)c1 [Example 9y]	< 10			
COCc1cccc(-c2nc(N3CCOCC3)c3ccc(-c4ccc(Cl)cc4)nc3n2)c1 [Example 9z]	< 10			
C[C@H]1COCCN1c1nc(N2CCOC[C@@H]2C)c2ccc(-c3ccc(F)c(C#N)c3)nc2n1 [Example 11av, 5-[2,4-bis-((S)-3-methyl-morpholin-4-yl)-pyrido[2,3-d]pyrimidin-7-yl]-2-fluoro-benzonitrile]		< 0.3		IC50 [2, 7]: < 0.3 µM
COc1ccc(-c2ccc3c(N4CCOC[C@@H]4C)nc(N4C[C@@H](C)O[C@@H](C)C4)nc3n2)cc1CO [Example 11b]		< 0.1		IC50 (mTOR; [8]): 0.00185 µM; IC50 [2, 7]: < 0.1 µM
CCC1CCCCN1c1nc(N2CCOC[C@@H]2C)c2ccc(-c3ccc(OC)c(CO)c3)nc2n1 (some centres unmarked) [Example 11c]		< 0.3		IC50 (mTOR; [8]): 0.00184 µM; IC50 [2, 7]: < 0.1 µM
C[C@H]1COCCN1c1nc(N2CCOC[C@@H]2C)c2ccc(-c3cccc(Cl)n3)nc2n1 [Example 11v]		< 0.3		IC50 [1, 3]: 0.18 µM; IC50 ([2]; compounds of Formula I(B), upper bounds, read-out: IC50 values against mTOR (phospho-Ser473 Akt assay)): < 11 µM
COc1ccc(-c2ccc3c(N4CCOC[C@@H]4C)nc(-c4cccc(N)c4)nc3n2)cc1CO [Example 29f]		< 0.1		IC50 [1, 3]: 0.096 µM; IC50 [2, 7]: < 0.3 µM
